Data from US10434083B2, “Transmammary delivery of cyclooxygenase-2 inhibitors for analgesia in neonates” (Iowa State University Research Foundation, Inc., priority 2018, dated 2019).
Read-outs that look alike come from different tables or passages of the source.

Key:
Format in all cases: in vivo, swine
[1] = Plasma firocoxib in nursing piglets after transmammary delivery (Example 1); settings: piglets nursing sow given 1.5 mg/kg IM; from 2 hours post-exposure to end of study (48 h)
Method: (§1) Blood (sodium heparin tubes) was collected from the sow via jugular venipuncture at the following time points after drug administration via injection to the sow: 0, 1, 2, 3, 4, 6, 8, 10, 12, 24, 36 and 48 hours. The piglets had blood collected via jugular venipuncture at the following timepoints following sow drug administration via injection:
Piglets 1-3 was bled at times 0, 3, 8 and 24 hours
Piglets 4-6 was bled at times 1, 4, 10 and 36 hours
Piglets 7-9 was bled at times 2, 6, 12 and 48 hours.
Approximately 10 mL of blood was collected from the sow at each time point, and approximately 5 mL was collected from each piglet at each time point. Following blood collection at the 48 hour time point, the sow and piglets was euthanized and disposed of per study site procedures. […]
Plasma concentrations of firocoxib were measured with high-pressure liquid chromatography-tandem mass spectrometry (Shimadzu Prominence, Shimadzu Scientific Instruments, Columbia, Md., USA). […]
(§2) The standard curve of firocoxib concentration determined using porcine plasma was linear from 0.020 to 5.0 μg/mL and was accepted when the correlation coefficient exceeded 0.99 and measured values were within 15% of the actual values. The lower limit of quantification, defined as the lowest concentration on a linear standard curve with predicted concentrations within 15% of the actual concentration, was 0.020 μg/mL.

[2] = Pharmacokinetics of firocoxib in a single sow after IM injection (Example 1); settings: 1.5 mg/kg IM; for AUC: im, 1.5 mg/kg
Text: The objective of this study was to characterize the pharmacokinetic profile and transmammary delivery of firocoxib in a single sow and her litter when administered via injection to provide analgesia to piglets via the milk prior to routine piglet processing procedures. One crossbred sow and her litter sourced from the MVS-Klitz Farm was used for this project. The sow was in good health, and had not received treatment with anti-inflammatory drugs by any route. The study sow was housed in a farrowing crate. Feed and water was provided ad libitum throughout the study period. No additional medications were provided. Study animals were identified using unique duplicate ear tags and/or tattoos.
There was one treatment group in this study (refer to Table 1). The sow was given firocoxib (20 mg/mL) on Study Day 0. Firocoxib was administered via injection five (+/−2) days post-farrow, at 1.5 mg/kg IM.
as §1
Approximately 10 mL of blood was collected from the sow at each time point, and approximately 5 mL was collected from each piglet at each time point. Following blood collection at the 48 hour time point, the sow and piglets was euthanized and disposed of per study site procedures.
Samples were stored on ice after collection and before processing. Blood samples were centrifuged for 10 minutes at 1,500 g. Collected plasma was placed in duplicate cryovials with a single-use transfer pipette and frozen at −70° C. until analysis. Cryovials were labeled with the time point and collection date.
Plasma concentrations of firocoxib were measured with high-pressure liquid chromatography-tandem mass spectrometry (Shimadzu Prominence, Shimadzu Scientific Instruments, Columbia, Md., USA). Briefly, frozen samples or standards were thawed at room temperature and rigorously vortexed once completely thawed. A 200 μL plasma sample was added to 400 μL 5% Acetic Acid and the internal standard celecoxib (20 μg/mL). The entire diluted sample was added to a 3 mL solid phase extraction tubes (OASIS) which was conditioned prior with methanol (2 ml) and equilibrated with water (2 ml). The sample was then gravity filtered through the solid phase extraction tubes and subsequently washed with 1 ml 5% acetic acid, followed by 1 ml solution of 25% methanol/75% water. Using 2×0.75 mL acetonitrile, firocoxib was eluted into a glass tube and an additional internal standard piroxicam (10 ng/μL) was added. Samples were evaporated to dryness at 48° C. under a stream of nitrogen, reconstituted with […] 25% in water and pipetted into an injection vial for LC-MS/MS analysis with the injection volume set to 10 μL. The mobile phase consisted of acetonitrile and formic acid (0.1%) at a flow rate of 0.4 mL/min. The concentration of this mobile phase began at 85% formic acid (0.1%) from 0 to 0.5 minutes with a linear gradient to 50% formic acid (0.1%) at 2.5 minutes, which was maintained until 3 minutes, followed by a linear gradient to 85% formic acid (0.1%) at 4 minutes with a total run time of 5 minutes.
as §2
Firocoxib time concentration data was analyzed using a commercially available computer software program (Kinetica, Thermo Scientific).

[3] = Preweaning piglet deaths per sow treatment group
Method: Protocols involved intramuscular injection of Firocoxib to lactating sows at either 0.5, 1.0, 1.5 or 2 mg/kg, and analysis in sows and select piglets at 21 days post treatment. Pregnant Yorkshire×Landrace sows (mean±SEM bodyweight, 250.3±7.61 kg) that were approximately 1 week before farrowing were sourced from a commercial swine farm. Each sow was examined by a veterinarian to confirm that she was healthy and pregnant. A unique numerical ear tag (Allflex Global Ear Tags, Allflex USA, Inc., DFW Airport, TX) was placed in the right ear of each sow for identification. The sows were housed in a commercial swine operation at MVS (West Point, Nebr.) in accordance with the recommendations in the Guide for the Care and Use of Agricultural Animals in Agricultural Use and Research and Teaching (Guide for the Care and Use of Agricultural Animals in Agricultural Research and Teaching, 2010). Sows were placed in Quad- or Euro-style farrowing stalls (Thorp Equipment, Thorp, Wis.), depending on availability. Regardless of stall type, each sow was housed in a farrowing crate measuring 0.6 m×2.1 m. Quad and Euro crates had piglet creep areas of 7.0 m^2 and 6.4 m^2, respectively. After farrowing, a heat lamp was provided on one side of the creep area for the piglets in each crate. All sows were fed a diet that met or exceeded National Research Council (NRC, 2012) nutrient requirements and water was provided ad libitum. Each litter provided at least six male and three female piglets for sampling with the exception of one sow that had 5 males and 4 females in the litter, and one sow that had 3 males and 6 females in the litter. Piglets were clinically examined and weighed on Study Day 0 prior to dosing. Cross fostering of the litters was permitted. Bodyweights were used to randomly assign sows to 1 of 4 treatment groups (n=4 sows/group) as detailed in Table 3.
A sample size of 4 sows was selected to describe the pharmacokinetics of firocoxib. For the comparison of plasma cortisol concentrations and average daily gain in bodyweight (ADG), a sample size of 36 piglets/treatment group was calculated to provide Statistical Power of 0.8 assuming an alpha of 0.05, sigma of 0.54 and delta of 0.20. At the time of study commencement (T0), sows received a single dose of firocoxib (Equioxx Injection, Merial, Duluth, Ga.) (Lot number 4VP07, Expiration Date November 2017) administered at either 0.5 mg/kg, 1.0 mg/kg, 1.5 mg/kg, or 2.0 mg/kg by IM injection into the right lateral neck using an 18-gauge, 1.5-inch needle attached to a 20-mL syringe (Table 3). In cases where the calculated dose volume exceeded 20-mL, the remaining volume was administered via IM injection in the left lateral neck muscle.

[4] = female, crossbred, swine, plasma

With CC1(C)OC(=O)C(OCC2CC2)=C1c1ccc(S(C)(=O)=O)cc1 [firocoxib] as the compound, how does the “plasma drug concentrations in piglets” value [1] read?
Its value is “above 10 ng/mL”.

And the “% AUCextra” value [2]?
Its value is 33.02%.

What about the AUMCextra [2] of the same compound?
Its AUMCextra is 322.22 μg/mL * (h)^2.

What about the AUMClast [2] of the same compound?
Its AUMClast is 155.18 μg/mL * (h)^2.

And the AUMtot [2]?
Its AUMtot is 477.39 μg/mL * (h)^2.

What about the Clearance [2] of the same compound?
Its Clearance is 32.45 L/h.

What about the Vss [2] of the same compound?
Its Vss is 1390.95 L.

What about the Vz [2] of the same compound?
Its Vz is 1285.61 L.

And the AUC(0-t) ([2]; female, crossbred, pig, plasma)?
The AUC(0-t) was 7460 ng·h/mL.

What about the MRT ([2]; female, crossbred, pig, plasma) of the same compound?
The MRT was 42.9 h.

And the MRT last ([2]; female, crossbred, pig, plasma)?
Its MRT last is 20.8 h.

And the half-life ([2]; female, crossbred, pig, plasma)?
Its half-life is 27.5 h.

And the AUC ([2]; female, crossbred, pig, plasma, read-out: AUCextra)?
Its AUC is 3680 ng·h/mL.

And the AUC ([2]; female, crossbred, pig, plasma, read-out: AUCtot)?
The AUC was 11100 ng·h/mL.

And the Cmax [2, 4]?
The Cmax was 287 ng/mL.

What about the Tmax [2, 4] of the same compound?
The Tmax was 6 h.

What about the “Preweaning piglet deaths, Total” value ([3]; sow treatment group #1, 0.5 mg/kg) of the same compound?
Its value is 2.

What about the “Preweaning piglet deaths, Total” value ([3]; sow treatment group #2, 1.0 mg/kg) of the same compound?
Its value is 3.

What about the “Preweaning piglet deaths, Total” value ([3]; sow treatment group #3, 1.5 mg/kg) of the same compound?
Its value is 3.

What about the “Preweaning piglet deaths, Total” value ([3]; sow treatment group #4, 2.0 mg/kg) of the same compound?
Its value is 0.
